Here are results for 33 molecules from US11299461B2 (priority 2018, dated 2022).

For orientation: Ki means the equilibrium dissociation constant of an inhibitor or competing ligand from its target. A lower Ki goes with higher affinity.

The target of this assay is LF 263-C catalytic domain (anthrax lethal factor) (Bacillus anthracis, UniProt P15917). The assay can be described thus: biochemical.
Sequence of LF 263-C catalytic domain (anthrax lethal factor) (P15917 296-809 limits assumed): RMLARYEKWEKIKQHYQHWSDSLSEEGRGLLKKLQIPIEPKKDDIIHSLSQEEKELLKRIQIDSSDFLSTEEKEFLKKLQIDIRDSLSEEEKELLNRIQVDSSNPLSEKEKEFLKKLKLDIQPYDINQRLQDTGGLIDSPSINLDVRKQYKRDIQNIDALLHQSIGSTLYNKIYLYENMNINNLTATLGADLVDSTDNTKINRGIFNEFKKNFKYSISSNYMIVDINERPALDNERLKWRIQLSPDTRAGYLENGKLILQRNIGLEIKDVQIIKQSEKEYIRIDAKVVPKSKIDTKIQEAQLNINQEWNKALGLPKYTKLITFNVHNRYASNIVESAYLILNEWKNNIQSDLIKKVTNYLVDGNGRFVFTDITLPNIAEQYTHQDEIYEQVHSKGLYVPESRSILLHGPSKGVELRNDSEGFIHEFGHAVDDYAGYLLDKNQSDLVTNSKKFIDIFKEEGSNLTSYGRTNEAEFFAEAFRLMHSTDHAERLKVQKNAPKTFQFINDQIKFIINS
As to `Cc1ccc([C@@H](CO)NCCCC[C@@H](Nc2cc(C)c(F)c(C)c2)C(=O)NO)nc1` [Compound 1, (R)-2-((4-fluoro-3,5-dimethylphenyl)amino)-N-hydroxy-6-(((S)-2-hydroxy-1-(5-methylpyridin-2-yl)ethyl)amino)hexanamide], the Ki is 0.17 nM. That is a sub-nanomolar value.
Under `Cc1cc(N[C@H](CCCCN[C@H](CO)c2ccc(F)cn2)C(=O)NO)cc(C)c1F` [Compound 2, (R)-2-((4-fluoro-3,5-dimethylphenyl)amino)-6-(((S)-1-(5-fluoropyridin-2-yl)-2-hydroxyethyl)amino)-N-hydroxyhexanamide] stands 0.14 nM; under `Cc1cc(N[C@H](CCCCN[C@@H](c2ccc(F)cn2)C(C)C)C(=O)NO)cc(C)c1F` [Compound 3, (R)-2-((4-fluoro-3,5-dimethylphenyl)amino)-6-(((R)-1-(5-fluoropyridin-2-yl)-2-methylpropyl)amino)-N-hydroxyhexanamide], 0.2 nM; under `Cc1cc(N[C@H](CCCCN[C@@H](c2ccc(Cl)cn2)C(C)C)C(=O)NO)cc(C)c1F` [Compound 4, (R)-6-(((R)-1-(5-chloropyridin-2-yl)-2-methylpropyl)amino)-2-((4-fluoro-3,5-dimethylphenyl)amino)-N-hydroxyhexanamide], 0.45 nM.
Consider `CC[C@@H](NCCCC[C@@H](Nc1cc(C)c(F)c(C)c1)C(=O)NO)c1ncc(F)cc1F` [Compound 5, (R)-6-(((R)-1-(3,5-difluoropyridin-2-yl)propyl)amino)-2-((4-fluoro-3,5-dimethylphenyl)amino)-N-hydroxyhexanamide], for which the Ki amounted to 0.39 nM.
Turning to `Cc1cc(N[C@H](CCCCN[C@@H](c2ncc(F)cc2F)C(C)C)C(=O)NO)cc(C)c1F` [Compound 6, (R)-6-(((R)-1-(3,5-difluoropyridin-2-yl)-2-methylpropyl)amino)-2-((4-fluoro-3,5-dimethylphenyl)amino)-N-hydroxyhexanamide], the Ki amounted to 0.28 nM.
As for `Cc1cc(N[C@H](CCCCN[C@H](C)c2ccc(Cl)cn2)C(=O)NO)cc(C)c1F` [Compound 7, (R)-6-(((R)-1-(5-chloropyridin-2-yl)ethyl)amino)-2-((4-fluoro-3,5-dimethylphenyl)amino)-N-hydroxyhexanamide], affinity was put at a Ki of 0.35 nM. The Ki values of the last two molecules are within 1.5-fold of each other.
For the molecule `CC[C@@H](NCCCC[C@@H](Nc1cc(C)c(F)c(C)c1)C(=O)NO)c1ccc(F)cn1` [Compound 8, (R)-2-((4-fluoro-3,5-dimethylphenyl)amino)-6-(((R)-1-(5-fluoropyridin-2-yl)propyl)amino)-N-hydroxyhexanamide], the Ki stood at 0.57 nM.
`Cc1cc(C[C@H](CCCCNCc2ccccn2)C(=O)NO)cc(C)c1F` [Compound 9, (S)-2-(4-fluoro-3,5-dimethylbenzyl)-N-hydroxy-6-((pyridin-2-ylmethyl)amino)hexanamide] had a Ki of 1 nM.
`Cc1cc(C[C@H](CCCCN[C@H](C)c2ccc(F)cn2)C(=O)NO)cc(C)c1F` [Compound 10, (S)-2-(4-fluoro-3,5-dimethylbenzyl)-6-(((R)-1-(5-fluoropyridin-2-yl)ethyl)amino)-N-hydroxyhexanamide] returned a Ki of 0.15 nM.
Under `Cc1ccc([C@@H](C)NCCCC[C@@H](Cc2cc(C)c(F)c(C)c2)C(=O)NO)nc1` [Compound 11, (S)-2-(4-fluoro-3,5-dimethylbenzyl)-N-hydroxy-6-(((R)-1-(5-methylpyridin-2-yl)ethyl)amino)hexanamide] stands 0.08 nM.
`Cc1cc(C[C@H](CCCCN[C@H](CO)c2ccc(F)cn2)C(=O)NO)cc(C)c1F` [Compound 12, (S)-2-(4-fluoro-3,5-dimethylbenzyl)-6-(((S)-1-(5-fluoropyridin-2-yl)-2-hydroxyethyl)amino)-N-hydroxyhexanamide] had a Ki of 0.08 nM.
With `Cc1ccc([C@@H](CO)NCCCC[C@@H](Cc2cc(C)c(F)c(C)c2)C(=O)NO)nc1` [Compound 13, (S)-2-(4-fluoro-3,5-dimethylbenzyl)-N-hydroxy-6-(((S)-2-hydroxy-1-(5-methylpyridin-2-yl)ethyl)amino)hexanamide], the affinity, expressed as Ki, was 0.07 nM.
Consider `Cc1cc(C[C@H](CCCCN[C@H](C)c2ccc(C(F)(F)F)cn2)C(=O)NO)cc(C)c1F` [Compound 14, (S)-2-(4-fluoro-3,5-dimethylbenzyl)-N-hydroxy-6-(((R)-1-(5-(trifluoromethyl)pyridin-2-yl)ethyl)amino)hexanamide], for which the affinity corresponds to a Ki of 1.3 nM. Against the preceding molecule, the Ki is about 19-fold higher.
For `CCN(CCCC[C@@H](Cc1cc(C)c(F)c(C)c1)C(=O)NO)[C@H](C)c1ccc(C(F)(F)F)cn1` [Compound 15, (S)-6-(ethyl((R)-1-(5-(trifluoromethyl)pyridin-2-yl)ethyl)amino)-2-(4-fluoro-3,5-dimethylbenzyl)-N-hydroxyhexanamide], affinity was put at a Ki of 3.6 nM.
Molecule `COc1ccc([C@@H](C)NCCCC[C@@H](Cc2cc(C)c(F)c(C)c2)C(=O)NO)nc1` [Compound 16, (S)-2-(4-fluoro-3,5-dimethylbenzyl)-N-hydroxy-6-(((R)-1-(5-methoxypyridin-2-yl)ethyl)amino)hexanamide] returned a Ki of 0.31 nM. This Ki lies about 12-fold lower than the previous one.
`CCN(CCCC[C@@H](Cc1cc(C)c(F)c(C)c1)C(=O)NO)[C@H](C)c1ccc(OC)cn1` [Compound 17, (S)-6-(ethyl((R)-1-(5-methoxypyridin-2-yl)ethyl)amino)-2-(4-fluoro-3,5-dimethylbenzyl)-N-hydroxyhexanamide] came in with a Ki of 4.5 nM.
`Cc1cc(C[C@H](CCCCN(C)Cc2ccc(F)cn2)C(=O)NO)cc(C)c1F` [Compound 18, (S)-2-(4-fluoro-3,5-dimethylbenzyl)-6-(((5-fluoropyridin-2-yl)methyl)(methyl)amino)-N-hydroxyhexanamide] gave a Ki of 1.6 nM.
In turn, `COc1ccc(CN(C)CCCC[C@@H](Cc2cc(C)c(F)c(C)c2)C(=O)NO)nc1` [Compound 19, (S)-2-(4-fluoro-3,5-dimethylbenzyl)-N-hydroxy-6-(((5-methoxypyridin-2-yl)methyl)(methyl)amino)hexanamide] returned a Ki of 1.4 nM.
For `Cc1cc(C[C@H](CCCCNC(C)(C)c2ccc(F)cn2)C(=O)NO)cc(C)c1F` [Compound 20, (S)-2-(4-fluoro-3,5-dimethylbenzyl)-6-((2-(5-fluoropyridin-2-yl)propan-2-yl)amino)-N-hydroxyhexanamide], the affinity, expressed as Ki, was 0.19 nM.
The molecule `Cc1cc(C[C@H](CCCCN[C@@H](c2ccc(F)cn2)C(C)C)C(=O)NO)cc(C)c1F` [Compound 21, (S)-2-(4-fluoro-3,5-dimethylbenzyl)-6-(((R)-1-(5-fluoropyridin-2-yl)-2-methylpropyl)amino)-N-hydroxyhexanamide] displayed a Ki of 0.11 nM.
Under `Cc1cc(C[C@H](CCCCN[C@@H](c2ccc(Cl)cn2)C(C)C)C(=O)NO)cc(C)c1F` [Compound 22, (S)-6-(((R)-1-(5-chloropyridin-2-yl)-2-methylpropyl)amino)-2-(4-fluoro-3,5-dimethylbenzyl)-N-hydroxyhexanamide] stands 0.17 nM.
`Cc1cc(C[C@H](CCCCN[C@@H](c2ncc(F)cc2F)C(C)C)C(=O)NO)cc(C)c1F` [Compound 23, (S)-6-(((R)-1-(3,5-difluoropyridin-2-yl)-2-methylpropyl)amino)-2-(4-fluoro-3,5-dimethylbenzyl)-N-hydroxyhexanamide] registered a Ki of 0.25 nM. This Ki and that of the molecule before are within 1.5-fold of each other.
Turning to `Cc1cc(C[C@H](CCCCN[C@@H](C)c2ccc(F)cn2)C(=O)NO)cc(C)c1F` [Compound 24, (S)-2-(4-fluoro-3,5-dimethylbenzyl)-6-(((S)-1-(5-fluoropyridin-2-yl)ethyl)amino)-N-hydroxyhexanamide], the affinity corresponds to a Ki of 0.44 nM.
Take `CC[C@@H](NCCCC[C@@H](Cc1cc(C)c(F)c(C)c1)C(=O)NO)c1ncc(F)cc1F` [Compound 25, (S)-6-(((R)-1-(3,5-difluoropyridin-2-yl)propyl)amino)-2-(4-fluoro-3,5-dimethylbenzyl)-N-hydroxyhexanamide]: the affinity, expressed as Ki, was 0.12 nM.
With `Cc1cc(C[C@H](CCCCN[C@H](c2ccc(F)cn2)C(C)C)C(=O)NO)cc(C)c1F` [Compound 26, (S)-2-(4-fluoro-3,5-dimethylbenzyl)-6-(((S)-1-(5-fluoropyridin-2-yl)-2-methylpropyl)amino)-N-hydroxyhexanamide], the Ki is 0.87 nM.
The molecule `Cc1cc(C[C@H](CCCCN[C@H](C)c2ccc(Cl)cn2)C(=O)NO)cc(C)c1F` [Compound 27, (S)-6-(((R)-1-(5-chloropyridin-2-yl)ethyl)amino)-2-(4-fluoro-3,5-dimethylbenzyl)-N-hydroxyhexanamide] displayed a Ki of 0.08 nM.
For `CC[C@@H](NCCCC[C@@H](Cc1cc(C)c(F)c(C)c1)C(=O)NO)c1ccc(F)cn1` [Compound 28, (S)-2-(4-fluoro-3,5-dimethylbenzyl)-6-(((R)-1-(5-fluoropyridin-2-yl)propyl)amino)-N-hydroxyhexanamide] the value was 0.08 nM; for `Cc1cc(C[C@H](CCCCN(C)Cc2ccc(F)cn2)C(=O)NO)cc(Cl)c1F` [Compound 29, (S)-2-(3-chloro-4-fluoro-5-methylbenzyl)-6-(((5-fluoropyridin-2-yl)methyl)(methyl)amino)-N-hydroxyhexanamide], 1.1 nM.
As to `Cc1cc(C[C@H](CCCCN[C@@H](c2ccc(F)cn2)C(C)C)C(=O)NO)cc(Cl)c1F` [Compound 30, (S)-2-(3-chloro-4-fluoro-5-methylbenzyl)-6-(((R)-1-(5-fluoropyridin-2-yl)-2-methylpropyl)amino)-N-hydroxyhexanamide], the Ki was determined as 0.25 nM.
`Cc1cc(C[C@H](CCCCN[C@@H](c2ccc(Cl)cn2)C(C)C)C(=O)NO)cc(Cl)c1F` [Compound 31, (S)-2-(3-chloro-4-fluoro-5-methylbenzyl)-6-(((R)-1-(5-chloropyridin-2-yl)-2-methylpropyl)amino)-N-hydroxyhexanamide] returned an inhibition constant (Ki) of 0.26 nM.
For the molecule `COc1ccc(CN(C)CCCC[C@@H](Cc2cc(C)c(F)c(Cl)c2)C(=O)NO)nc1` [Compound 32, (S)-2-(3-chloro-4-fluoro-5-methylbenzyl)-N-hydroxy-6-(((5-methoxypyridin-2-yl)methyl)(methyl)amino)hexanamide], the Ki is 1.5 nM.
For the molecule `CN(CCCC[C@@H](Cc1cc(Cl)c(F)c(Cl)c1)C(=O)NO)Cc1ccc(F)cn1` [Compound 33, (S)-2-(3,5-dichloro-4-fluorobenzyl)-6-(((5-fluoropyridin-2-yl)methyl)(methyl)amino)-N-hydroxyhexanamide], the Ki came to 1.6 nM.
